Assay results taken from ChEMBL document CHEMBL5665443, “Enzyme Inhibitor Single Concentration assay results for EUbOPEN Chemogenomics Library” (2024).
Where a SMILES comes first, the peptide text is derived from it. Bridges are numbered along the chain shown (N, C = ends). [ ]: non-standard residue; d: D form. Orn = NCCC[C@H](N)C(=O)O; Mpa = O=C(O)CCS

Legend:
[1] = target: T1, Endonuclease 8-like 2 (Homo sapiens) (UniProt Q969S2); settings: Compound Concentration 10.0 uM, Hit No;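 further: fluorescence at 594 nm reports NEIL2 cutting and release of a quenched double-stranded DNA oligo substrate, reduced signal read as inhibition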
T1 sequence (whole entry): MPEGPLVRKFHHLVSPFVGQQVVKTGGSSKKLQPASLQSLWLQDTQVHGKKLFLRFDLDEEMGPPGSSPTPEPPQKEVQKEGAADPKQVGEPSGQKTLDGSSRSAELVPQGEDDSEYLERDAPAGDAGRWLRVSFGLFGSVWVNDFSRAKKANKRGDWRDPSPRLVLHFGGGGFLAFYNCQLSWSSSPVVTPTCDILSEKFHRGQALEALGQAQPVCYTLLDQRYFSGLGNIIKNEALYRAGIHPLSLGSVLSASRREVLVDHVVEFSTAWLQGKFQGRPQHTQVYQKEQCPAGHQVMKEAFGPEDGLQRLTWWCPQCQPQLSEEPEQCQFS
Description: Inhibition of NEIL2 by quantifying inhibition of NEIL2-mediated cleavage and dissociation of quenched duplex DNA oligonucleotides, measured as fluorescence at 594 nm.

[2] = target: Endonuclease 8-like 1 (Homo sapiens) (UniProt Q96FI4); settings: Hit No;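 further: fluorescence at 594 nm from quenched duplex DNA oligonucleotides released by NEIL1 cleavage and strand separation, reported as reduction of this enzyme activity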
Description: Inhibition of NEIL1 by quantifying inhibition of NEIL1-mediated cleavage and dissociation of quenched duplex DNA oligonucleotides, measured as fluorescence at 594 nm.

[3] = target: T2, Single-strand selective monofunctional uracil DNA glycosylase (Homo sapiens) (UniProt Q53HV7); settings: Compound Concentration 10.0 uM, Hit No;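 further: enzymatic SMUG1 assay coupled with APE1, reading fluorescence at 594 nm released when a quenched double-stranded DNA oligonucleotide substrate is cleaved and separated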
T2 sequence (whole entry): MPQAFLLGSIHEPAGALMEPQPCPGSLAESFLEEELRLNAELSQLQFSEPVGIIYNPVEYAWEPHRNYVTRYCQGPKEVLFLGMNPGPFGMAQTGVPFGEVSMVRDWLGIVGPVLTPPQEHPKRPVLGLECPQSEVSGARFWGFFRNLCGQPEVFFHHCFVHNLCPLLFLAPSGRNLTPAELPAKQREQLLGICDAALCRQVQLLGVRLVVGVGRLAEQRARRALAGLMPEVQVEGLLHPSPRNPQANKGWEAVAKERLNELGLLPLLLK
Description: Inhibition of SMUG1 by quantifying inhibition of SMUG1-mediated cleavage and dissociation of quenched duplex DNA oligonucleotides, measured as fluorescence at 594 nm. To generate a functional strand incision and increase turn-over this assay is coupled to APE1.

[4] = target: Methyl-CpG-binding domain protein 4 (Homo sapiens) (UniProt O95243); settings: Hit No;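 further: MBD4 activity read as fluorescence at 594 nm from cleavage and release of a quenched duplex DNA oligonucleotide, with APE1 coupled to incise the strand and raise turnover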
Description: Inhibition of MBD4 by quantifying inhibition of MBD4-mediated cleavage and dissociation of quenched duplex DNA oligonucleotides, measured as fluorescence at 594 nm. To generate a functional strand incision and increase turn-over this assay is coupled to APE1.

[5] = target: G/T mismatch-specific thymine DNA glycosylase (Homo sapiens) (UniProt Q13569); settings: Hit No;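 further: human TDG cleavage of quenched duplex DNA oligonucleotides coupled to APE1, strand release read as fluorescence at 594 nm, inhibition of TDG activity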
Description: Inhibition of TDG by quantifying inhibition of TDG-mediated cleavage and dissociation of quenched duplex DNA oligonucleotides, measured as fluorescence at 594 nm. To generate a functional strand incision and increase turn-over this assay is coupled to APE1.

[6] = target: Uracil-DNA glycosylase (Homo sapiens) (UniProt P13051); settings: Hit No;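 further: UNG excision on a quenched double-stranded DNA oligo probe, with APE1 added for strand incision and turnover, read as fluorescence at 594 nm as strands separate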
Description: Inhibition of UNG by quantifying inhibition of UNG-mediated cleavage and dissociation of quenched duplex DNA oligonucleotides, measured as fluorescence at 594 nm. To generate a functional strand incision and increase turn-over this assay is coupled to APE1.

[7] = target: N-glycosylase/DNA lyase (Homo sapiens) (UniProt O15527); settings: Compound Concentration 10.0 uM, Hit No;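 further: OGG1 cleavage of a quenched duplex DNA oligonucleotide, coupled to APE1 for strand incision, read as fluorescence at 594 nm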
N-glycosylase/DNA lyase (Homo sapiens), sequence (O15527 whole entry): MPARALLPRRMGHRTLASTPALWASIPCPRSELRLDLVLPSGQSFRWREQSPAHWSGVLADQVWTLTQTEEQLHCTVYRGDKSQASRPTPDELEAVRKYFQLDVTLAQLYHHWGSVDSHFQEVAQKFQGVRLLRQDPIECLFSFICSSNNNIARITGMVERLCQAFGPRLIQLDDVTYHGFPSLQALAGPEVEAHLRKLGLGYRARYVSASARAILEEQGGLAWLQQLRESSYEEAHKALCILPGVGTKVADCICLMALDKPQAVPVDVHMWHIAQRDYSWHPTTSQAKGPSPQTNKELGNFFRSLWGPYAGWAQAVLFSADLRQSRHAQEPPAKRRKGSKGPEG
Description: Inhibition of OGG1 by quantifying inhibition of OGG1-mediated cleavage and dissociation of quenched duplex DNA oligonucleotides, measured as fluorescence at 594 nm. To generate a functional strand incision and increase turn-over this assay is coupled to APE1.

Uracil-DNA glycosylase (Homo sapiens), sequence (P13051 whole entry): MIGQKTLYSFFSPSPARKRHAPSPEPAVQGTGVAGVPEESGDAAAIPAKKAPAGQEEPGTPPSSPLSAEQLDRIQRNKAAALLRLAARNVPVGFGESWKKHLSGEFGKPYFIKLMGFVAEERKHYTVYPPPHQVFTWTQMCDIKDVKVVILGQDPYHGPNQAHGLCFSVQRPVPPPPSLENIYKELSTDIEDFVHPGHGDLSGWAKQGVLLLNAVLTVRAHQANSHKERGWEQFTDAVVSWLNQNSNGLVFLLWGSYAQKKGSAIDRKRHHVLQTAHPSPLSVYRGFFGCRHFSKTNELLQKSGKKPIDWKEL
G/T mismatch-specific thymine DNA glycosylase (Homo sapiens), sequence (Q13569 whole entry): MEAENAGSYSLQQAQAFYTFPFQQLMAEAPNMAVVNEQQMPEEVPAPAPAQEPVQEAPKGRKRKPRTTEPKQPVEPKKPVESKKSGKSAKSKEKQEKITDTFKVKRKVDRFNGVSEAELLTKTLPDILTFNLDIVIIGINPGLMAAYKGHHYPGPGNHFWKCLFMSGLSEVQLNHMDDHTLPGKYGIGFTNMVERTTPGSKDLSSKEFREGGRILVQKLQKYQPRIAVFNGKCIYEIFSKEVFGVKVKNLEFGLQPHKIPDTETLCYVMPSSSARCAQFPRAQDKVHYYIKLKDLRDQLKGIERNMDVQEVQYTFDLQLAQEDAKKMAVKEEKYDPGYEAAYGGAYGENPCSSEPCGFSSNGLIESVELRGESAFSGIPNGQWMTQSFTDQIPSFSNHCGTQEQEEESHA
Methyl-CpG-binding domain protein 4 (Homo sapiens), sequence (O95243 whole entry, the tested form may be a part): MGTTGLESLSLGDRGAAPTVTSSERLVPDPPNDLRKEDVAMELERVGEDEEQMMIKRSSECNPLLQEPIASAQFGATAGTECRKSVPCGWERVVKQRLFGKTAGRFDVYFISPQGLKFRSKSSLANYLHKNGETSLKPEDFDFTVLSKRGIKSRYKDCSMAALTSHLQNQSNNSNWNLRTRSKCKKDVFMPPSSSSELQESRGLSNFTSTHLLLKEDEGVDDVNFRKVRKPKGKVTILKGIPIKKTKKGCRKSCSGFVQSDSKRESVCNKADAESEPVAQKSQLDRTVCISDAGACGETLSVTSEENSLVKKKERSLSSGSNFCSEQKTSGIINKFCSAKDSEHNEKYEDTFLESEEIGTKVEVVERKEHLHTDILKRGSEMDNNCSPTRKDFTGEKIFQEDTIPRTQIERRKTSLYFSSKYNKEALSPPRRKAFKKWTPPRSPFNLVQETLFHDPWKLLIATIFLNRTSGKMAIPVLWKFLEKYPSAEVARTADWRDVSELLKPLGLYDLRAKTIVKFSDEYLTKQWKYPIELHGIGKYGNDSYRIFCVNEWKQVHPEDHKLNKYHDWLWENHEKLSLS
Endonuclease 8-like 1 (Homo sapiens), sequence (Q96FI4 whole entry): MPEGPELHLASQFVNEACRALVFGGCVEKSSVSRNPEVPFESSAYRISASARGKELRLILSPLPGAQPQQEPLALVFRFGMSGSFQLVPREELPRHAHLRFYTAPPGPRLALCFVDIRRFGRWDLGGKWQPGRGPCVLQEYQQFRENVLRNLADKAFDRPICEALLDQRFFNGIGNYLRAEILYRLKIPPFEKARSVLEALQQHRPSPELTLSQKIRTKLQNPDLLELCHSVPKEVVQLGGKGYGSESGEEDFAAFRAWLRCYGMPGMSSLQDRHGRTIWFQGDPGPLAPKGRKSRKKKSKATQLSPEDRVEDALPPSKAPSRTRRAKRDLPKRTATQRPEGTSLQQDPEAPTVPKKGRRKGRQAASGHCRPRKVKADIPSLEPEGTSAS

Compound	inhibition [1]	inhibition ([2]; Compound Concentration 10.0 uM)	inhibition [3]	inhibition ([4]; Compound Concentration 10.0 uM)	inhibition ([5]; Compound Concentration 10.0 uM)	inhibition ([6]; Compound Concentration 10.0 uM)	inhibition [7]	inhibition ([2]; Compound Concentration 1.0 uM)	inhibition ([6]; Compound Concentration 1.0 uM)	inhibition ([4]; Compound Concentration 1.0 uM)	inhibition ([5]; Compound Concentration 1.0 uM)
C[C@@H]1CN(Cc2ccc(F)cc2)CCN1C(=O)COc1ccc(Cl)cc1NC(N)=O	1.76%	8.25%	-3.18%	-0.315%	-7.21%	–	–	–	–	–	–
Cn1ncc2c(-c3c(-c4ccc(F)cn4)nn4c3COC(C)(C)C4)ccnc21	-5.34%	–	3.56%	50.1%	99.5%	1.59%	-1.93%	–	–	–	–
CC(C=CC1=C(C)CCCC1(C)C)=CC=CC(C)=CC(=O)O	-4.83%	–	8.2%	57.7%	96.3%	-0.014%	83.6%	–	–	–	–
O=C(c1ccc(F)c(F)c1Nc1ccc(I)cc1F)N1CC(O)([C@@H]2CCCCN2)C1	–	–	13.1%	21.9%	45%	7.28%	–	–	–	–	–
Cn1c(-c2csc(C3CCN(CC4=NC5N=CC=CC5N4)CC3)n2)nc2ccccc21 (stereo not given)	-5.34%	-1.5%	–	-3.01%	20.6%	–	-1.15%	–	–	–	–
C=CC(=O)N1CCC([C@@H]2CCNc3c(C(N)=O)c(-c4ccc(Oc5ccccc5)cc4)nn32)CC1	–	-8.45%	20.1%	–	49.9%	-0.527%	6.47%	–	–	–	–
CCOc1ccn(-c2ccc(F)cc2)c(=O)c1C(=O)Nc1ccc(Oc2ccnc(N)c2Cl)c(F)c1	–	6.08%	30.4%	–	59.2%	6.57%	-7.89%	–	–	–	–
CCOc1ccc(C[C@H]2NC(=O)CCSSC[C@@H](C(=O)N3CCC[C@H]3C(=O)N[C@@H](CCCN)C(=O)NCC(N)=O)NC(=O)[C@H](CC(N)=O)NC(=O)[C@H]([C@@H](C)O)NC(=O)[C@H]([C@@H](C)CC)NC2=O)cc1 ([Mpa][dY](Et)ITNCP[Orn]G-NH2; disulfide 1-6)	9%	4.99%	-2.21%	–	-5.89%	-8.02%	–	–	–	–	–
Cc1ccc2c(c1)c1c(n2CCc2ccc(C)nc2)CCN(C)C1	3.01%	-8.95%	-3.57%	–	-5.76%	–	–	–	–	–	–
O=S(=O)(c1ccccc1)c1cnc2c(N3CCNCC3)cccc2c1	-5.97%	6.47%	-2.7%	–	–	-8.69%	-2.8%	–	–	–	–
CN1C2CCC1CC(OC(c1ccc(F)cc1)c1ccc(F)cc1)C2 (stereo not given)	-4.23%	1.28%	–	–	–	-4.51%	–	–	–	–	–
Cc1nc2sccn2c(=O)c1CCN1CCC(=C(c2ccc(F)cc2)c2ccc(F)cc2)CC1	7.75%	-4.65%	-6.91%	–	20.8%	–	4.32%	–	–	–	–
N#Cc1cccc(C(=O)Nc2cc(-c3ccccc3)nn2-c2ccccc2)c1	0.764%	-1.98%	-0.276%	–	-2.1%	–	-5.93%	–	–	–	–
CC(C)COc1ccc(CNC(=O)N(Cc2ccc(F)cc2)C2CCN(C)CC2)cc1	8%	2.32%	–	–	-0.163%	–	-7.83%	–	–	–	–
Nc1ccc(C(=O)Nc2cccc(-c3nc(N4CCOCC4)c4oc5ncccc5c4n3)c2)cn1	–	-5.94%	9.56%	-6.46%	7.37%	2.33%	23%	–	–	–	–
O=C(Cc1ccc(Cl)c(Cl)c1)N1CCCC[C@H]1CN1CCCC1	-2.48%	-3.91%	-3.13%	–	–	-9.61%	2.1%	–	–	–	–

Compound	inhibition [1]	inhibition ([2]; Compound Concentration 10.0 uM)	inhibition [3]	inhibition ([4]; Compound Concentration 10.0 uM)	inhibition ([5]; Compound Concentration 10.0 uM)	inhibition ([6]; Compound Concentration 10.0 uM)	inhibition [7]	inhibition ([2]; Compound Concentration 1.0 uM)	inhibition ([6]; Compound Concentration 1.0 uM)	inhibition ([4]; Compound Concentration 1.0 uM)	inhibition ([5]; Compound Concentration 1.0 uM)
Cc1nc(-c2ccc(-c3ccc(C(=O)N4CCc5cc6c(cc54)C4(CCN(C)CC4)CO6)cc3)c(C)c2)no1	-3.48%	-7.62%	–	2.3%	-5.26%	–	–	–	–	–	–
O=C(N[C@@H]1CC[C@@H](c2cccc(F)c2F)CN(CC(F)(F)F)C1=O)N1CCC(n2c(=O)[nH]c3ncccc32)CC1	4.76%	-5.1%	–	–	0.452%	–	-8.48%	–	–	–	–
COc1cc(N2CCC(O)CC2)ccc1Nc1cc(Nc2ccccc2S(=O)(=O)C(C)C)c2cc[nH]c2n1	–	–	4.55%	13.6%	52.6%	3.96%	21.1%	–	–	–	–
c1cc(OCCCN2CCCCC2)ccc1CN1CCCCC1	-0.733%	-2.58%	–	–	13.9%	–	-9.64%	–	–	–	–
Cc1c(C(=O)O)cc(-c2ccc(C3CCNCC3)cc2)c2ccc(-c3ccc(C(F)(F)F)cc3)cc12	-4.83%	-6.8%	4.5%	–	44.3%	3.66%	11.4%	–	–	–	–
CC[C@H]1OC(=O)[C@H](C)[C@@H](O[C@H]2C[C@@](C)(OC)[C@@H](O)[C@H](C)O2)[C@H](C)[C@@H](O[C@@H]2O[C@H](C)C[C@H](N(C)C)[C@H]2O)[C@@]2(C)CC(C)=C(O2)[C@H](C)[C@@H](O)[C@]1(C)O	4.76%	3.06%	-6.48%	–	0.145%	–	–	–	–	–	–
Cc1cc2c(-c3ccco3)cnc(N[C@H]3CCN(C)C[C@@H]3C(=O)NC3CCCCC3)c2[nH]c1=O	-2.27%	0.316%	–	29.8%	22.3%	-1.62%	–	–	–	–	–
Cc1ccc(-c2ccc3c(ccc4sc5c(c43)NCC(C)NC5=O)n2)cn1 (stereo not given)	–	-2.5%	6.89%	–	25.8%	–	-7.16%	–	–	–	–
CCn1c(CNC(=O)c2nc(Cl)cnc2N)[n+](CC)c2ccc(C(=O)N(C)CCN(C)C)cc21	–	-5.14%	12.7%	53.4%	96.8%	2.92%	14.2%	–	–	–	–
N#Cc1ccc2[nH]cc(CCCCN3CCN(c4ccc5oc(C(N)=O)cc5c4)CC3)c2c1	–	14.2%	10.3%	–	-5.72%	-7.29%	-2.53%	–	–	–	–
CCCCCCCCCCCCCCCCOC[C@H](COP(=O)([O-])OCC[N+](C)(C)C)OC(C)=O	-9.72%	-4.5%	–	–	–	-5.53%	31.6%	–	–	–	–
NC(=O)[C@@H]1CCCN1C(=O)[C@H](Cc1c[nH]cn1)NC(=O)[C@@H]1CCC(=O)N1	12.7%	-9.1%	-2.65%	-3.57%	10.8%	–	-2.75%	–	–	–	–
COc1cccc(OC)c1-c1cc(C(=O)NC2(C(=O)O)C3CC4CC(C3)CC2C4)nn1-c1ccc(C(=O)N(C)CCCN(C)C)cc1C(C)C (stereo not given)	7.25%	2.02%	–	10.5%	18.3%	-7.25%	3.59%	–	–	–	–
Clc1ccc(CCCOCCCN2CCCCC2)cc1	-5.97%	-3.47%	-0.857%	–	8.64%	-8.48%	–	–	–	–	–
N=C(N)SCCc1c[nH]cn1	–	-8.06%	-7.4%	11.4%	-1.52%	–	-6.9%	–	–	–	–
Cc1ccc(NC(=O)Nc2cc(C(F)(F)F)ccc2F)cc1Nc1ccc2c(c1)NC(=O)/C2=C\c1ccc[nH]1	–	–	–	–	–	–	–	-7.79%	-3.3%	-5.4%	24.1%
